Measurements from the NIST ThermoML archive (doi:10.1016/j.tca.2009.07.002).

Assay: xn = mol fraction of the nth substance listed
Details: 101 kPa, Liquid, Vibrating tube method

NC1CCCCC1 [cyclohexylamine] + CCCCCCC
mass density [kg/m3]
Details	288.15 K	293.15 K	298.15 K	303.15 K	308.15 K	313.15 K	318.15 K	323.15 K
x1 = 0.0501	694.788	690.573	686.334	682.072	677.784	673.467	669.12	664.739
x1 = 0.1002	701.818	697.601	693.36	689.097	684.805	680.49	676.146	671.776
x1 = 0.1501	709.079	704.855	700.609	696.341	692.046	687.73	683.386	679.015
x1 = 0.2305	721.227	716.988	712.729	708.452	704.15	699.827	695.479	691.106
x1 = 0.3004	732.296	728.038	723.765	719.477	715.17	710.839	706.489	702.117
x1 = 0.401	749.067	744.783	740.484	736.173	731.847	727.504	723.139	718.756
x1 = 0.4497	757.546	753.244	748.933	744.614	740.28	735.927	731.554	727.16
x1 = 0.5597	777.524	773.195	768.854	764.509	760.149	755.773	751.384	746.981
x1 = 0.6001	785.155	780.814	776.463	772.102	767.732	763.352	758.953	754.544
x1 = 0.6498	794.839	790.479	786.113	781.744	777.362	772.968	768.563	764.139
x1 = 0.6994	804.717	800.344	795.962	791.575	787.181	782.776	778.36	773.935
x1 = 0.7999	825.611	821.199	816.783	812.36	807.934	803.499	799.055	794.605
x1 = 0.8992	847.523	843.061	838.598	834.132	829.662	825.189	820.71	816.229
x1 = 1	871.29	866.747	862.207	857.671	853.138	848.607	844.073	839.547
